Ten compounds from patent US4568490A, “Aminopropylaminobleomycin derivatives and process for preparation thereof” (Zaidan Hojin Biseibutsu Kagaku Kenkyu Kai, priority 1981, dated 1986) can be followed below.

Data set [1] has as its system Mycobacterium smegmatis ATCC 607. The data set is described as follows: Antimicrobial activity, agar plate-cylinder method. Type of data set: cell-based. Conditions: Cu-free form; bleomycin A2 (Cu-free form) standard assumed 1,000 mcg/mg. Here is the method:
(§1) The activity was assayed against the above test microorganisms by the method of agar plate-cylinder, assuming the potency of bleomycin A2 (Cu-free form), used as standard, to be 1,000 mcg/mg.

Data set [2] relates to Bacillus subtilis. The data set is described as follows: Antimicrobial activity, agar plate-cylinder method. It counts as cell-based. The conditions noted are these: Cu-free form; bleomycin A2 (Cu-free form) standard assumed 1,000 mcg/mg. Here is the method: (1) Antimicrobial activity against Mycobacterium smegmatis ATCC 697 and Bacillus subtilis.
as §1

Data set [3] has as its system Hela S3 cells. The data set is described as follows: Growth inhibitory activity against Hela S3 cells. Type of data set: cell-based. Conditions: Cu-free form; Hela S3, 3 days incubation with compound. Here is the method: The percentage growth inhibition was calculated using the equation: […] wherein A is the ultimate number of cells on the third day from the addition of a test sample, B is the ultimate number of cells in the control (without the addition of test sample), and C is the number of cells on the day of addition of the test sample.

Data set [4] concerns ICR strain mice. The data set is described as follows: Pulmonary toxicity (pulmonary fibrosis) in mice, intraperitoneal injection. The conditions noted are these: 5 mg/kg i.p. once a day for 10 days; for Grade of pulmonary fibrosis, % / Incidence of pulmonary fibrosis, % / Incidence: number of mice suffering from pulmonary fibrosis / Grade: total score of pulmonary fibrosis/total number of test animal: autopsy after 5 weeks; for Incidence: number of mice suffering from pulmonary fibrosis: affected/total mice; for Grade: total score of pulmonary fibrosis/total number of test animal: score 0-6 points; for Grade of pulmonary fibrosis, Ratio / Incidence of pulmonary fibrosis, Ratio: reference of the ratio not stated. It counts as in vivo. Here is the method:
(3) Pulmonary toxicity (pulmonary fibrosis) in mice.
ICR strain mice (male; 15 weeks old; 9 mice per group) were used. Each mouse was administered with a daily dose of 5 mg/kg of the test sample by intraperitoneal injection, once a day, for 10 consecutive days. After completion of the predetermined administration, the mice were kept for 5 weeks under observation, then slaughtered, and autopsied to examine the incidence and grade of pulmonary fibrosis. The evaluation was made by comparing the number of administered mice suffering from pulmonary fibrosis and the grade of the disease.
(§2) In Tables 4A and 4B, the grade was numerically rated as follows:
(§3) 1 point: Accumulation of exudate in pulmonary alveoli and fibrosis-like change in alveolar septum.
(§4) 2 points: Fibrosis in several areas.
(§5) 4 points: Scattered fibrosis.
(§6) 6 points: Fibrosis in more than two-thirds of the total area.

The subject of data set [5] is ICR mice. Nature of the data set: Pulmonary toxicity (pulmonary fibrosis) in mice, intratracheal instillation. It counts as in vivo. Conditions: 16 μg/50 μl/mouse intratracheally, sacrificed 4 weeks after instillation; for Grade: total score of pulmonary fibrosis/total number of samples: score 0-6 points. Here is the method: Male 15 weeks old ICR mice were used. Sixteen μg/50 μl/mouse of each test sample was intratracheally instilled. The mice were sacrificed 4 weeks after instillation to examine the incidence and grade of pulmonary fibrosis. The evaluation was made by comparing the number of administered mice suffering from pulmonary fibrosis and the grade of the disease.
as §2, §3, §4, §5, §6

Take `Cc1c(N)nc(C(CC(N)=O)NCC(N)C(N)=O)nc1C(=O)NC(C(=O)NC(C)C(O)C(C)C(=O)NC(C(=O)NCCc1nc(-c2nc(C(=O)NCCCN(C)CCCNCCC3CCCCC3)cs2)cs1)C(C)O)C(OC1OC(CO)C(O)C(O)C1OC1OC(CO)C(O)C(OC(N)=O)C1O)c1cnc[nH]1` (stereo not drawn) [compound 30, 3-{N--Methyl-N--[3'-(cyclohexylethylamino)propyl]amino}propylaminoBLM]: the “Antimicrobial potency of Cu--free compound, against Mycobacterium smegmatis ATCC 607” value in data set [1] is 35030 mcg potency per mg. Also, in data set [2], the “Antimicrobial potency of Cu--free compound, against Bacillus subtilis” value was determined as 14440 mcg potency per mg. Further, the “50% growth inhibition concentration (ID50) of Cu--free compound against cultured Hela cell” value in data set [3] is 0.56 µg/mL.
With `Cc1c(N)nc(C(CC(N)=O)NCC(N)C(N)=O)nc1C(=O)NC(C(=O)NC(C)C(O)C(C)C(=O)NC(C(=O)NCCc1nc(-c2nc(C(=O)NCCCN(C)CCCNCc3ccc(C#N)cc3)cs2)cs1)C(C)O)C(OC1OC(CO)C(O)C(O)C1OC1OC(CO)C(O)C(OC(N)=O)C1O)c1cnc[nH]1` (stereo not drawn) [compound 18, 3-{N--Methyl-N--[3'-(p-cyanobenzylamino)propyl]amino}propylaminoBLM], in data set [1], the “Antimicrobial potency of Cu--free compound, against Mycobacterium smegmatis ATCC 607” value was found to be 3163 mcg potency per mg. In addition, in data set [4], the “Grade of pulmonary fibrosis, %” value amounted to 0%; the “Incidence of pulmonary fibrosis, %” value is recorded as 0%; the “Incidence: number of mice suffering from pulmonary fibrosis” value (shortened to “Incidence: number of mice suffering”) is 0/9; the “Grade: total score of pulmonary fibrosis/total number of test animal” value is 0/27. Besides, in data set [4], the “Grade of pulmonary fibrosis, Ratio” value worked out at 0.00 and the “Incidence of pulmonary fibrosis, Ratio” value came to 0.00. Further, the “Antimicrobial potency of Cu--free compound, against Bacillus subtilis” value in data set [2] was 4347 mcg potency per mg. The “50% growth inhibition concentration (ID50) of Cu--free compound against cultured Hela cell” value in data set [3] was 1.10 µg/mL.
For `Cc1c(N)nc(C(CC(N)=O)NCC(N)C(N)=O)nc1C(=O)NC(C(=O)NC(C)C(O)C(C)C(=O)NC(C(=O)NCCc1nc(-c2nc(C(=O)NCCCN(C)CCCNCC3CCCCC3)cs2)cs1)C(C)O)C(OC1OC(CO)C(O)C(O)C1OC1OC(CO)C(O)C(OC(N)=O)C1O)c1cnc[nH]1` (stereo not drawn) [compound 29, 3-{N--Methyl-N--[3'-(cyclohexylmethylamino)propyl]amino}propylaminoBLM], in data set [1], the “Antimicrobial potency of Cu--free compound, against Mycobacterium smegmatis ATCC 607” value came to 15414 mcg potency per mg. Besides, the “Antimicrobial potency of Cu--free compound, against Bacillus subtilis” value in data set [2] amounted to 12148 mcg potency per mg. Moreover, the “50% growth inhibition concentration (ID50) of Cu--free compound against cultured Hela cell” value in data set [3] turned out to be 0.63 µg/mL.
For the compound `Cc1c(N)nc(C(CC(N)=O)NCC(N)C(N)=O)nc1C(=O)NC(C(=O)NC(C)C(O)C(C)C(=O)NC(C(=O)NCCc1nc(-c2nc(C(=O)NCCCNCCCNC(C)c3ccccc3)cs2)cs1)C(C)O)C(OC1OC(CO)C(O)C(O)C1OC1OC(CO)C(O)C(OC(N)=O)C1O)c1cnc[nH]1` (stereo not drawn) [PEPP, 3-[3-(N-1-phenylethyl)aminopropyl]aminopropylamino-bleomycin, reference compound], in data set [5], the “Grade of pulmonary fibrosis, %” value was determined as 56%; the “Incidence of pulmonary fibrosis, %” value is 89%; the “Incidence: number of mice with pulmonary fibrosis/number of mice” value is on record as 8/9; the “Grade: total score of pulmonary fibrosis/total number of samples” value is 15/27.
On to `Cc1c(N)nc(C(CC(N)=O)NCC(N)C(N)=O)nc1C(=O)NC(C(=O)NC(C)C(O)C(C)C(=O)NC(C(=O)NCCc1nc(-c2nc(C(=O)NCCCN(C)CCCN(Cc3ccc(OCC4CCCCCCC4)cc3)Cc3ccc(OCC4CCCCCCC4)cc3)cs2)cs1)C(C)O)C(OC1OC(CO)C(O)C(O)C1OC1OC(CO)C(O)C(OC(N)=O)C1O)c1cnc[nH]1` (stereo not drawn) [compound 52, 3-{N--Methyl-N--[3'-(bis(p-cyclooctylmethyloxybenzyl)amino)propyl)amino}propylaminoBLM], for which, in data set [1], the “Antimicrobial potency of Cu--free compound, against Mycobacterium smegmatis ATCC 607” value is 268 mcg potency per mg. In data set [4], the “Grade of pulmonary fibrosis, %” value is listed as 0%; the “Incidence of pulmonary fibrosis, %” value was 0%; the “Incidence: number of mice suffering” value is given as 0/9; the “Grade: total score of pulmonary fibrosis/total number of test animal” value was 0/27. For the same compound, in data set [4], the “Grade of pulmonary fibrosis, Ratio” value amounted to 0.00 and the “Incidence of pulmonary fibrosis, Ratio” value came to 0.00. The “Antimicrobial potency of Cu--free compound, against Bacillus subtilis” value in data set [2] stood at 49 mcg potency per mg. Besides, in data set [3], the “50% growth inhibition concentration (ID50) of Cu--free compound against cultured Hela cell” value was determined as 0.13 µg/mL.
For `Cc1c(N)nc(C(CC(N)=O)NCC(N)C(N)=O)nc1C(=O)NC(C(=O)NC(C)C(O)C(C)C(=O)NC(C(=O)NCCc1nc(-c2nc(C(=O)NCCCN(C)CCCN(Cc3ccc(OCc4ccc(OCc5ccccc5)cc4)cc3)Cc3ccc(OCc4ccc(OCc5ccccc5)cc4)cc3)cs2)cs1)C(C)O)C(OC1OC(CO)C(O)C(O)C1OC1OC(CO)C(O)C(OC(N)=O)C1O)c1cnc[nH]1` (stereo not drawn) [compound 51], the “Antimicrobial potency of Cu--free compound, against Mycobacterium smegmatis ATCC 607” value in data set [1] came to 163 mcg potency per mg. Further, in data set [4], the “Grade of pulmonary fibrosis, %” value worked out at 0%; the “Incidence of pulmonary fibrosis, %” value was determined as 0%; the “Incidence: number of mice suffering” value is recorded as 0/9; the “Grade: total score of pulmonary fibrosis/total number of test animal” value is 0/27. In data set [4], the “Grade of pulmonary fibrosis, Ratio” value came to 0.00 and the “Incidence of pulmonary fibrosis, Ratio” value worked out at 0.00. Moreover, the “Antimicrobial potency of Cu--free compound, against Bacillus subtilis” value in data set [2] is given as 46 mcg potency per mg. Also, the “50% growth inhibition concentration (ID50) of Cu--free compound against cultured Hela cell” value in data set [3] is 0.12 µg/mL.
Consider `Cc1c(N)nc(C(CC(N)=O)NCC(N)C(N)=O)nc1C(=O)NC(C(=O)NC(C)C(O)C(C)C(=O)NC(C(=O)NCCc1nc(-c2nc(C(=O)NCCCN(C)CCCNCC3CCCCCC3)cs2)cs1)C(C)O)C(OC1OC(CO)C(O)C(O)C1OC1OC(CO)C(O)C(OC(N)=O)C1O)c1cnc[nH]1` (stereo not drawn) [compound 31, 3-{N--Methyl-N--[3'-(cycloheptylmethylamino)propyl]amino}propylaminoBLM], for which the “Antimicrobial potency of Cu--free compound, against Mycobacterium smegmatis ATCC 607” value in data set [1] was 25924 mcg potency per mg. For the same compound, in data set [2], the “Antimicrobial potency of Cu--free compound, against Bacillus subtilis” value was 20143 mcg potency per mg. Moreover, the “50% growth inhibition concentration (ID50) of Cu--free compound against cultured Hela cell” value in data set [3] amounted to 0.48 µg/mL.
For `Cc1c(N)nc(C(CC(N)=O)NCC(N)C(N)=O)nc1C(=O)NC(C(=O)NC(C)C(O)C(C)C(=O)NC(C(=O)NCCc1nc(-c2nc(C(=O)NCCCNC(C)c3ccccc3)cs2)cs1)C(C)O)C(OC1OC(CO)C(O)C(O)C1OC1OC(CO)C(O)C(OC(N)=O)C1O)c1c[nH]cn1` [PEP, 3-[(S)-1'-phenylethylamino]propylamino-bleomycin, reference compound], in data set [5], the “Grade of pulmonary fibrosis, %” value is reported as 150%; the “Incidence of pulmonary fibrosis, %” value is recorded as 75%; the “Incidence: number of mice with pulmonary fibrosis/number of mice” value is on record as 6/8; the “Grade: total score of pulmonary fibrosis/total number of samples” value is given as 36/24.
The corresponding values for `Cc1c(N)nc(C(CC(N)=O)NCC(N)C(N)=O)nc1C(=O)NC(C(=O)NC(C)C(O)C(C)C(=O)NC(C(=O)NCCc1nc(-c2nc(C(=O)NCCCN(C)CCCNCc3ccc([N+](=O)[O-])cc3)cs2)cs1)C(C)O)C(OC1OC(CO)C(O)C(O)C1OC1OC(CO)C(O)C(OC(N)=O)C1O)c1cnc[nH]1` (stereo not drawn) [MNBZ, 3-(N-methyl-N-3-p-nitro-benzylamino-propyl)aminopropylamino-bleomycin, reference compound] are 104%, 89%, 8/9 and 28/27.
As to `Cc1c(N)nc(C(CC(N)=O)NCC(N)C(N)=O)nc1C(=O)NC(C(=O)NC(C)C(O)C(C)C(=O)NC(C(=O)NCCc1nc(-c2nc(C(=O)NCCCN(C)CCCNCC3CCCC3)cs2)cs1)C(C)O)C(OC1OC(CO)C(O)C(O)C1OC1OC(CO)C(O)C(OC(N)=O)C1O)c1cnc[nH]1` (stereo not drawn) [compound 28, 3-{N--Methyl-N--[3'-(cyclopentylmethylamino)propyl]amino}propylaminoBLM], the “Antimicrobial potency of Cu--free compound, against Mycobacterium smegmatis ATCC 607” value in data set [1] is 13595 mcg potency per mg. For the same compound, the “Antimicrobial potency of Cu--free compound, against Bacillus subtilis” value in data set [2] turned out to be 16180 mcg potency per mg. In addition, in data set [3], the “50% growth inhibition concentration (ID50) of Cu--free compound against cultured Hela cell” value was found to be 1.00 µg/mL.
